Experimental data taken from patent publication US20220017971A1, “COMPOSITION FOR PREDICTING CHEMOTHERAPY RESISTANCE OF OVARIAN CANCER AND USE THEREOF” (KOOKMIN UNIVERSITY INDUSTRY ACADEMY COOPERATION FOUNDATION, priority 2020, published 2022).

Key:
Type in all cases: cell-based
OV90 cells [1] = experiment: Cell proliferation capacity using BrdU, OV90; conditions: for proliferative capability (BrdU incorporation): agent alone; for proliferative capability reduced by cisplatin (BrdU): combined treatment with cisplatin; for proliferative capability reduced by paclitaxel (BrdU): combined treatment with paclitaxel
Method: (§1) Epithelial ovarian cancer OV90 and ES2 cells were cultured in 6 wells, and a non-specific control and target oligonucleotide were transfected using Lipofectamine 2000 (Invitrogen). All oligonucelotides were synthesized by to Bioneer. Oligonucleotide and Lipofectamine 2000 were diluted in Opti-MEM reduced serum medium (Gibco, Cat No: 32985070) and then treated with cells. After 6 h of incubation at 37° C. in a 5% CO2 incubator, the medium was replaced with a medium containing FBS.
(§2) An experiment was performed according to the manufacturer's manual using the BrdU kit (Cat No: 1167229001, Roche) to confirm the change in the proliferation ability of epithelial ovarian cancer cells. After 48 hours of incubation, 10 μM BrdU was additionally added to each well and incubated for 2 hours at 37° C./5% CO2 in an incubator. After labeling the epithelial ovarian cancer cells with BrdU and fixing the cells, they were incubated with anti-BrdU-POD solution at room temperature for 90 minutes, and then washed three times. Finally, the cells were reacted with 100 μl of 3,3′, 5,5′-tetramethylbenzidine substrate, and the cell proliferation ability was analyzed by measuring the absorbance at 370 nm and 492 nm using an ELISA reader.

ES2 cells [2] = experiment: Cell proliferation capacity using BrdU, ES2; conditions: for proliferative capability (BrdU incorporation): agent alone; for proliferative capability reduced by cisplatin (BrdU): combined treatment with cisplatin; for proliferative capability reduced by paclitaxel (BrdU): combined treatment with paclitaxel
Method: as §1, §2

PCNA [3] = experiment: PCNA expression (qPCR, immunofluorescence), OV90; conditions: OV90 cells; for PCNA expression: anticancer drug alone; for PCNA expression reduced by cisplatin: combined treatment with cisplatin
Method: (§3) cDNA was synthesized from 1 μg of RNA using AccuPower RT PreMix (Bioneer, Daejeon, Korea). Gene expression was measured using SYBR Green (Sigma) and the StepOnePlus Real-Time PCR system (Applied Biosystems, Foster City, Calif.). PCR conditions were incubated at 95° C. for 3 minutes, then 95° C. 30 seconds, 60° C. 30 seconds, and 72° C. 3 minutes conditions were amplified 40 times, and normalized based on the GAPDH expression level.
(§4) Transfected epithelial ovarian cancer cells were fixed with methanol for 10 minutes and treated with PCNA antibody diluted in 1:100. After that, after washing twice with PBS containing 0.1% bovine serum albumin (BSA), the secondary antibody goat anti-mouse IgG Alexa 488 (catalog number: A11017, Invitrogen, Carlsbad, Calif.) was added to antibody dilution buffer so as to be diluted in 1:200 and incubated for 1 hour at room temperature.
(§5) After washing the cells with 0.1% BSA-PBS, DAPI staining was additionally performed to allow simultaneous observation of the target protein as well as the nucleus. After finishing the experiment, cells were observed and photographed using an LSM710 (Carl Zeiss, Thornwood, N.Y., USA) confocal microscope.

PCNA [4] = experiment: PCNA expression (qPCR, immunofluorescence), ES2; conditions: ES2 cells; for PCNA expression: anticancer drug alone; for PCNA expression reduced by cisplatin: combined treatment with cisplatin
Method: as §3, §4, §5

LHX6 [5] = experiment: LHX6 gene expression after oligonucleotide transfection (qPCR), OV90; conditions: OV90 cells
Method: as §3, §1
(§6) Next, to analyze whether miR-214-3p can alter the characteristics of epithelial ovarian cancer cells, OV90 and ES2 cells, epithelial ovarian cancer cell lines, were transfected with a mimic for miR-214 and an inhibitor for miR-214-3p (SEQ ID NO: 2: 5′-ACUGCCUGUCUGUGCCUGCUGU-3′).

LHX6 [6] = experiment: LHX6 gene expression after oligonucleotide transfection (qPCR), ES2; conditions: ES2 cells
Method: as §3, §1, §6

OV90 cells [7] = experiment: Apoptosis by annexin V and propidium iodide staining, OV90
Method: (§7) In order to confirm the change in the apoptosis effect of epithelial ovarian cancer cells, an experiment was performed using the FITC Annexin V cell death diagnostic kit I (BD Biosciences). Using trypsin, the cells were removed from the culture dish, washed with PBS, and the cells were slowly mixed using 1 mL of 1× binding buffer and then centrifuged to obtain a cell pellet.
(§8) Next, the cells were suspended and cultured with 200 μL of 1× binding buffer, put into 100 μL of a brown 1.5 mL tube, and cells were mixed with 5 μL of Annexin V and 5 μL of PI, and then stained at room temperature for 15 minutes. After that, 400 μL of 1×binding buffer was added and the stained solution was transferred to a 5 mL FACS tube, and then the fluorescence intensity was analyzed using a flow cytometer to measure the number of apoptotic cells.

ES2 cells [8] = experiment: Apoptosis by annexin V and propidium iodide staining, ES2
Method: as §7, §8

OV90 cells [9] = experiment: Cell cycle analysis using propidium iodide staining, OV90; conditions: 48 hours
Method: (§9) In order to confirm the cell cycle change of ovarian cancer cells by the miR-214-3p inhibitor, 5×10^5 cells were cultured in 6 wells until 70 to 80% abundance appeared. Thereafter, miR-214-3p inhibitors were treated in a dose-dependent manner (10, 20, 40 nM) and cultured in a 37° C./5% CO2 incubator for 48 hours. Then, using trypsin, the cells were removed from the culture dish, washed with PBS, and the cells were slowly mixed using 1 mL of 1× binding buffer, and then centrifuged to obtain a cell pellet.
(§10) Next, the cells were suspended and cultured with 200 μL of 1× binding buffer, put in 100 μL in a brown 1.5 mL tube, and 5 μL of RNase and 5 μL of PI were mixed together to stain the cells for 1 hour at room temperature. After that, 400 μL of 1× binding buffer was added, the stained solution was transferred to a 5 mL FACS tube, and the fluorescence intensity was analyzed using a flow cytometer to measure the number of cells corresponding to each cell cycle.

ES2 cells [10] = experiment: Cell cycle analysis using propidium iodide staining, ES2; conditions: 48 hours
Method: as §9, §10

OV90 cells [11] = experiment: Cell migration, OV90
ES2 cells [12] = experiment: Cell migration, ES2
OV90 cells [13] = experiment: Intracellular ROS measurement using DCFH-DA, OV90
Method: (§11) ES2 and OV90 cells were collected through trypsin and centrifuged to obtain a cell pellet. After washing once with PBS, 10 μM of DCFH-DA was incubated in an incubator at 37° C. for 30 minutes. Thereafter, the cells were washed twice with PBS, and a miR-214-3p inhibitor was added thereto and incubated in an incubator at 37° C. for 1 hour. Treated cells were washed again with PBS and analyzed for DCF fluorescence intensity using flow cytometry.

ES2 cells [14] = experiment: Intracellular ROS measurement using DCFH-DA, ES2
Method: as §11

OV90 cells [15] = experiment: Mitochondrial membrane potential by JC-1 staining, OV90
Method: (§12) JC-1 mitochondrial membrane potential (MMP) changes were measured using a mitochondria staining kit (Cat No: CS0390, Sigma-Aldrich). 5×10^5 ES2 and OV90 cells were each aliquoted into 6 wells, and the cells were cultured until 70 to 80% abundance of the culture dish appeared. Thereafter, the miR-214-3p inhibitor was dose-dependently treated and cultured in a 37° C./5% CO2 incubator for 48 hours. Thereafter, cells were collected from the culture dish using trypsin and centrifuged to obtain a cell pellet. Cells were dissolved in JC-1 staining solution and incubated for 20 minutes at 37° C./5% CO2 incubator. The stained cells were centrifuged again, washed with 1×JC-1 staining buffer, and then fluorescence intensity was analyzed using a flow cytometer.

ES2 cells [16] = experiment: Mitochondrial membrane potential by JC-1 staining, ES2
Method: as §12

OV90 cells [17] = experiment: Intracellular calcium concentration by fluo-4 staining, OV90
Method: (§13) To check the intracellular calcium concentration of ovarian cancer cells, 3 μM of fluo-4 acetoxymethyl ester (AM) (Invitrogen) was used. First, 5×10^5 cells were cultured in 6 wells. Thereafter, the miR-214-3p inhibitor was dose-dependently treated and cultured in a 37° C./5% CO2 incubator for 48 hours. After that, cells were removed from the culture dish using trypsin, washed with PBS, and stained with 3 μM fluo-4 in an incubator at 37° C./5% CO2 for 20 minutes, washed with PBS, and then the stained solution was transferred into a FACS tube and the fluorescence intensity was analyzed using a flow cytometer to […].

ES2 cells [18] = experiment: Intracellular calcium concentration by fluo-4 staining, ES2
Method: as §13

[19] = combined treatment with paclitaxel

Compound	proliferative capability (BrdU incorporation) (OV90 cells [1])	proliferative capability (BrdU incorporation) (ES2 cells [2])	PCNA expression (PCNA [3])	PCNA expression (PCNA [4])	proliferative capability reduced by cisplatin (BrdU) (OV90 cells [1])	proliferative capability reduced by paclitaxel (BrdU) (OV90 cells [1])	proliferative capability reduced by cisplatin (BrdU) (ES2 cells [2])	proliferative capability reduced by paclitaxel (BrdU) (ES2 cells [2])	PCNA expression reduced by cisplatin (PCNA [3])	PCNA expression reduced by cisplatin (PCNA [4])	other results
CC(=O)O[C@H]1C(=O)[C@@]2(C)[C@H]([C@H](OC(=O)c3ccccc3)[C@]3(O)C[C@H](OC(=O)[C@H](O)[C@@H](NC(=O)c4ccccc4)c4ccccc4)C(C)=C1C3(C)C)[C@]1(OC(C)=O)CO[C@@H]1C[C@@H]2O [paclitaxel]	reduced	reduced	reduced	reduced	–	–	–	–	–	–	–
N.N.[Cl][Pt][Cl] [cisplatin]	reduced	reduced	significantly reduced	significantly reduced	–	–	–	–	–	–	–
miR-214-3p inhibitor: inhibitor for miR-214-3p (SEQ ID NO: 2: 5′-ACUGCCUGUCUGUGCCUGCUGU-3′) (ACUGCCUGUCUGUGCCUGCUGU; listed as RNA, chemistry not given here)	inhibit the proliferative capability	inhibit the proliferative capability	–	–	further reduced	further reduced	further reduced	further reduced	further decreased	further decreased	expression of the target gene LHX6 (LHX6 [5]): increased; expression of the target gene LHX6 (LHX6 [6]): increased; PCNA expression reduced by paclitaxel (PCNA [3]; [19]): further decreased; PCNA expression reduced by paclitaxel (PCNA [4]; [19]): further decreased; increase of apoptotic cells (OV90 cells [7]; 40 nM, p<0.001): 2.6 fold; apoptotic cell death compared to the control group (OV90 cells [7]; transfection): significantly increased; increase of apoptotic cells (ES2 cells [8]; 40 nM, p<0.001): 1.7 fold; apoptotic cell death compared to the control group (ES2 cells [8]; transfection): significantly increased; sub-G1 of the cell cycle (OV90 cells [9]): increasing; sub-G1 of the cell cycle (ES2 cells [10]): increasing; cell migration (OV90 cells [11]): reduced; cell migration (ES2 cells [12]): reduced; reactive oxygen species (OV90 cells [13]): increased; reactive oxygen species (ES2 cells [14]): increased; mitochondrial membrane potential (OV90 cells [15]): induced a change; mitochondrial membrane potential (ES2 cells [16]): induced a change; intracellular calcium ions (OV90 cells [17]): increased; intracellular calcium ions (ES2 cells [18]): increased
siLHX6: siRNA that inhibits the expression of LHX6 (SEQ ID NO: 3 sense 5′-GAG UCA UCC UUU UUC AGU A-3′, SEQ ID NO: 4 antisense) (sense GAGUCAUCCUUUUUCAGUA; antisense UACUGAAAAAGGAUGACUC; listed as RNA, chemistry not given here)	significantly increased	significantly increased	–	–	restored	restored	restored	restored	restored	restored	increase of proliferative levels (OV90 cells [1]; 40 nM): 1.4 fold; increase of proliferative levels (ES2 cells [2]; 40 nM): 1.4 fold; mRNA and protein level expression of PCNA (PCNA [3]; qPCR and immunofluorescence): significantly increased; mRNA and protein level expression of PCNA (PCNA [4]; qPCR and immunofluorescence): significantly increased
